According to patent US20080188528A1, “Modulators of C3a receptor and methods of use thereof” (priority 2006, published 2008):
Counter-ions that a name gives are not always drawn.

Target: T1, human C3a receptor (C3aR) (Homo sapiens, UniProt Q16581)
T1 construct: expressed in transfected cells
T1 sequence (Q16581 1-482): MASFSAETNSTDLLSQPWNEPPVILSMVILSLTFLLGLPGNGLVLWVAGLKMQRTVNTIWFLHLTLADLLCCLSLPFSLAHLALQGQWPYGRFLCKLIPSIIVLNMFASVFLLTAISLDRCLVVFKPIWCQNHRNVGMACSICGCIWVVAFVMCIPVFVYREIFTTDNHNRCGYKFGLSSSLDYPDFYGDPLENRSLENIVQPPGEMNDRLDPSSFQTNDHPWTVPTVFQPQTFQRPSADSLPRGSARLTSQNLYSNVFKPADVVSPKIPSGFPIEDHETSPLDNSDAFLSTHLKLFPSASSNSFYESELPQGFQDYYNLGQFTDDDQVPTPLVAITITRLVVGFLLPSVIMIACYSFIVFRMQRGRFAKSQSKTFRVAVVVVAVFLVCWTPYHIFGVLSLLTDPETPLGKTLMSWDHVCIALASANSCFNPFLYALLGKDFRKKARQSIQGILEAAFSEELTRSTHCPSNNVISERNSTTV
Assay: Inhibition of human [125I]-C3a binding to human C3a receptor (SPA, membranes of HEK293 cells expressing recombinant C3aR)
Settings: 0.1 nM [125I]-C3a, 3 hours at room temperature; Table 1
Procedure: Inhibition of human [^125I]-C3a binding to human C3a receptor
Binding of human [^125I]-C3a to human C3a receptor (C3aR) was done using cell membranes from HEK293 cells stably expressing recombinant C3aR, in a homogeneous scintillation proximity assay (SPA). The C3aR cell membranes were pre-coupled over-night at 4° C. to WGA-PVT SPA beads (Amersham) at a ratio of 10 μg cell membrane to 0.5 mg beads/assay. Assay was performed in 96-well microtiter Optiplates (Packard) by mixing coupled beads and 0.1 nM [^125I]-C3a (2200 Ci/mmol, Perkin Elmer Life Sciences), in a total volume of […] binding buffer (20 mM HEPES, pH 7.4, 125 mM NaCl, 5 mM KCl, 1 mM CaCl2, 1 mM MgCl2, 0.25% BSA, 0.2% CHAPS). Test compounds were diluted in DMSO and were tested for their inhibitory potential in the assay (final concentration≦1% DMSO). Incubation was done for 3 hours at room temperature followed by reading in a TopCount scintillation microplate reader. Non-specific binding was determined by adding 1 μM unlabeled C3a (Calbiochem) to the assay mixture. Calculation of the IC50 was done as above using a nonlinear least square fitting program, with Graphpad Prism.

| Compound | IC50 |
| --- | --- |
| N=C(N)NCCC[C@H](NC(=O)c1cccn(Cc2ccccc2)c1=O)C(=O)O [Compound 1, (2S)-2-{[(1-benzyl-2-oxo-1,2-dihydropyridin-3-yl)carbonyl]amino}-5-carbamimidamidopentanoic acid•TFA] | 50 to 500 nM |
| N=C(N)NCCC[C@@H](NC(=O)c1cccn(Cc2ccccc2)c1=O)C(=O)O [Compound 2, (2R)-2-{[(1-benzyl-2-oxo-1,2-dihydropyridin-3-yl)carbonyl]amino}-5-carbamimidamidopentanoic acid•TFA] | 500 to 20000 nM |
| N=C(N)NCCC[C@H](NC(=O)c1cccn(Cc2ccccc2Br)c1=O)C(=O)O [Compound 3, (2S)-2-({[1-(2-bromobenzyl)-2-oxo-1,2-dihydropyridin-3-yl]carbonyl}amino)-5-carbamimidamidopentanoic acid•TFA] | < 50 nM |
| CC(C)c1ccccc1Cn1cccc(C(=O)N[C@@H](CCCNC(=N)N)C(=O)O)c1=O [Compound 6, (2S)-5-carbamimidamido-2-({[1-(2-isopropylbenzyl)-2-oxo-1,2-dihydropyridin-3-yl]carbonyl}amino)pentanoic acid•TFA] | 50 to 500 nM |
| CC(C)c1cccc(Cn2cccc(C(=O)N[C@@H](CCCNC(=N)N)C(=O)O)c2=O)c1 [Compound 7, (2S)-5-carbamimidamido-2-({[1-(3-isopropylbenzyl)-2-oxo-1,2-dihydropyridin-3-yl]carbonyl}amino)pentanoic acid•TFA] | 50 to 500 nM |
| Cn1cccc(C(=O)N[C@@H](CCCNC(=N)N)C(=O)O)c1=O [Compound 9, (2S)-5-carbamimidamido-2-{[(1-methyl-2-oxo-1,2-dihydropyridin-3-yl)carbonyl]amino}pentanoic acid•TFA] | 500 to 20000 nM |
| N=C(N)NCCC[C@H](NC(=O)c1cccn(C2c3ccccc3-c3ccccc32)c1=O)C(=O)O [Compound 10, (2S)-5-carbamimidamido-2-({[1-(9H-fluoren-9-yl)-2-oxo-1,2-dihydropyridin-3-yl]carbonyl}amino)pentanoic acid•TFA] | 50 to 500 nM |
| N=C(N)NCCC[C@H](NC(=O)c1cccn(Cc2ccc3ccccc3c2)c1=O)C(=O)O [Compound 13, (2S)-5-carbamimidamido-2-({[1-(2-naphthylmethyl)-2-oxo-1,2-dihydropyridin-3-yl]carbonyl}amino)pentanoic acid•TFA] | < 50 nM |
| N=C(N)NCCC[C@H](NC(=O)c1cccn(Cc2cccc3ccccc23)c1=O)C(=O)O [Compound 14, (2S)-5-carbamimidamido-2-({[1-(1-naphthylmethyl)-2-oxo-1,2-dihydropyridin-3-yl]carbonyl}amino)pentanoic acid•TFA] | < 50 nM |
| CC1(C)CCC(C)(C)c2cc(Cn3cccc(C(=O)N[C@@H](CCCNC(=N)N)C(=O)O)c3=O)ccc21 [Compound 16, (2S)-5-carbamimidamido-2-[({2-oxo-1-[(5,5,8,8-tetramethyl-5,6,7,8-tetrahydro-2-naphthyl)methyl]-1,2-dihydropyridin-3-yl}carbonyl)amino]pentanoic acid•TFA] | 500 to 20000 nM |
| N=C(N)NCCC[C@H](NC(=O)c1cccn(Cc2ccc3cc(F)ccc3c2)c1=O)C(=O)O [Compound 17, (2S)-5-carbamimidamido-2-[({1-[(6-fluoro-2-naphthyl)methyl]-2-oxo-1,2-dihydropyridin-3-yl}carbonyl)amino]pentanoic acid•TFA] | < 50 nM |
| COc1cc2ccccc2cc1Cn1cccc(C(=O)N[C@@H](CCCNC(=N)N)C(=O)O)c1=O [Compound 18, (2S)-5-carbamimidamido-2-[({1-[(3-methoxy-2-naphthyl)methyl]-2-oxo-1,2-dihydropyridin-3-yl}carbonyl)amino]pentanoic acid•TFA] | 50 to 500 nM |
| COc1ccc2cc(Cn3cccc(C(=O)N[C@@H](CCCNC(=N)N)C(=O)O)c3=O)ccc2c1 [Compound 19, (2S)-5-carbamimidamido-2-[({1-[(6-methoxy-2-naphthyl)methyl]-2-oxo-1,2-dihydropyridin-3-yl}carbonyl)amino]pentanoic acid•TFA] | 50 to 500 nM |
| N=C(N)NCCC[C@H](NC(=O)c1cccn(Cc2ccccc2-c2ccccc2)c1=O)C(=O)O [Compound 20, (2S)-2-({[1-(biphenyl-2-ylmethyl)-2-oxo-1,2-dihydropyridin-3-yl]carbonyl}amino)-5-carbamimidamidopentanoic acid•TFA] | < 50 nM |
| N=C(N)NCCC[C@H](NC(=O)c1cccn(Cc2ccc(-c3ccccc3)cc2)c1=O)C(=O)O [Compound 22, (2S)-2-({[1-(biphenyl-4-ylmethyl)-2-oxo-1,2-dihydropylidin-3-yl]carbonyl}amino)-5-carbamimidamidopentanoic acid] | < 50 nM |
| N=C(N)NCCC[C@H](NC(=O)c1cccn(Cc2cccc(Cc3ccccc3)c2)c1=O)C(=O)O [Compound 24, (2S)-2-({[1-(3-benzylbenzyl)-2-oxo-1,2-dihydropyridin-3-yl]carbonyl}amino)-5-carbamimidamidopentanoic acid•TFA] | 50 to 500 nM |

Second part, the compound after the results:

| IC50 | Compound |
| --- | --- |
| < 50 nM | N=C(N)NCCC[C@H](NC(=O)c1cccn(Cc2cccc(Br)c2)c1=O)C(=O)O [Compound 4, (2S)-2-({[1-(3-bromobenzyl)-2-oxo-1,2-dihydropyridin-3-yl]carbonyl}amino)-5-carbamimidamidopentanoic acid•TFA] |
| < 50 nM | N=C(N)NCCC[C@H](NC(=O)c1cccn(Cc2ccc(Br)cc2)c1=O)C(=O)O [Compound 5, (2S)-2-({[1-(4-bromobenzyl)-2-oxo-1,2-dihydropyridin-3-yl]carbonyl}amino)-5-carbamimidamidopentanoic acid•TFA] |
| < 50 nM | CC(C)c1ccc(Cn2cccc(C(=O)N[C@@H](CCCNC(=N)N)C(=O)O)c2=O)cc1 [Compound 8] |
| < 50 nM | N=C(N)NCCC[C@H](NC(=O)c1cccn(CC(c2ccccc2)c2ccccc2)c1=O)C(=O)O [Compound 11, (2S)-5-carbamimidamido-2-({[1-(2,2-diphenylethyl)-2-oxo-1,2-dihydropyridin-3-yl]carbonyl}amino)pentanoic acid•TFA] |
| < 50 nM | N=C(N)NCCC[C@H](NC(=O)c1cccn(CCC(c2ccccc2)c2ccccc2)c1=O)C(=O)O [Compound 12, (2S)-5-carbamimidamido-2-({[1-(3,3-diphenylpropyl)-2-oxo-1,2-dihydropyridin-3-yl]carbonyl}amino)pentanoic acid•TFA] |
| 50 to 500 nM | N=C(N)NCCC[C@H](NC(=O)c1cccn(Cc2ccc3ccccc3n2)c1=O)C(=O)O [Compound 15, (2S)-5-carbamimidamido-2-({[2-oxo-1-(quinolin-2-ylmethyl)-1,2-dihydropyridin-3-yl]carbonyl}amino)pentanoic acid•TFA] |
| 50 to 500 nM | N=C(N)NCCC[C@H](NC(=O)c1cccn(Cc2cccc(-c3ccccc3)c2)c1=O)C(=O)O [Compound 21, (2S)-2-({[1-(biphenyl-3-ylmethyl)-2-oxo-1,2-dihydropyridin-3-yl]carbonyl}amino)-5-carbamimidamidopentanoic acid•TFA] |
| < 50 nM | N=C(N)NCCC[C@H](NC(=O)c1cccn(Cc2ccccc2Cc2ccccc2)c1=O)C(=O)O [Compound 23, (2S)-2-({[1-(2-benzylbenzyl)-2-oxo-1,2-dihydropyridin-3-yl]carbonyl}amino)-5-carbamimidamidopentanoic acid•TFA] |
